Test results from patent publication US10240133B2, “ERK-derived peptides and uses thereof” (Yeda Research and Development Co. Ltd., priority 2013, dated 2019).
Entries after “also recorded” stand apart in the source; their conditions may differ.

Columns and labels:
[1] = system: ERK; assay: Immunohistochemistry of ERK localization in xenograft tumors; assay type: in vivo, mice; conditions: MDA-MB-231 and LOXIMVI xenografts, anti ERK Ab
Description: FIGS. 10A-10B illustrate that the EPE peptide causes cytoplasmatic localization of ERK in xenografts. FIG. 10A: Photographs illustrating that EPE and Scr peptide as well as DMSO-treated MDA-MB-231 and LOXIMVI xenografts were immunostained with αgERK Ab. FIG. 10B presents bar-graphs representing number of cells with cytoplasmatic/nuclear ERK staining calculated in 10 random microscopic fields.

[2] = system: most cell lines examined; assay: Morphology assay (light microscopy); assay type: cell-based; conditions: 10 μM
Method: (§1) FIGS. 5A-5D illustrate that the EPE peptide leads to apoptosis of B-Raf mutant cancer cells. (A) The EPE peptide affects the morphology of treated cells. The indicated cells were treated with either the EPE or Scr peptides, DMSO, or taxol for 72 h, and photographed by a light microscope. (B) The EPE peptide induces apoptosis in melanoma cells detected by TUNEL. The indicated cell lines were treated as in A for 24 h. Apoptosis was detected by TUNEL staining. Images were obtained by florescence microscope. (C) Quantification of B. The bar-graph represents percent of apoptotic cells calculated in 10 different fields. (D) The EPE peptide induces apoptosis of melanoma cells detected by PARP cleavage. The indicated cell lines were treated as in (A) for 24 h. Cell extracts were subjected to Western blotting with αPARP Ab.
(§2) Cells were seeded on glass cover slips in a 12-wells plate at 25% confluence with medium containing 1% of FCS. Peptides (EPE or Scr), DMSO, or U0126 in a final concentration of 10 μM, were added after 4 h (considered as time “0”). TUNEL staining was performed at 24 h after the treatment according to manufacturer instruction (Roche Applied Science, Nutley, N.J., USA). Briefly, the medium was removed and cells were fixed with 3% of paraformaldehyde (1.5 h, 23° C.). Cells were rinsed twice with PBS and permeabilized with 0.1% Triton X-100 and 0.1% sodium citrate for 2 min on ice. Cells were rinsed twice with PBS and 28 μl of TUNEL reaction mixture (25 μl of TUNEL label, 2.5 μl of TUNEL enzyme and 0.1 mg/ml of DAPI) was added directly on top of the slide, cells were incubated for 16 h in humid box at 37° C. Cover slips were rinsed three times with PBS and mounted on microscope slides. The slides were dried and then subjected to image acquisition by a florescence microscope. For morphology assay, the cells were seeded at approximately 25% confluence in 6 cm plates with medium containing 1% FCS. Peptides (EPE and Scr) or DMSO or U0126 in a final concentration of 10 μM, were added after 4 h (considered to be time 0), 24 h and 48 h. […]

[3] = system: B-Raf melanoma cells; assay: Morphology assay (light microscopy); assay type: cell-based; conditions: 10 μM
Method: as §1, §2

[4] = system: ERK1/2; assay: Western blotting of ERK phosphorylation (TEY, NTS); assay type: cell-based
Method: (A) EPE peptide prevents ERK1/2-importin7 interaction. HeLa cells were serum starved (0.1%, 16 hours), pretreated with EPE peptide, scrambled peptide (10 μM, 2 hours) or DMSO, and then stimulated with TPA (250 nM, 15 min). ERK1 were precipitated with αgERK1 Ab; importin7 co-immunoprecipitated with ERK1 was detected by WB with αimportin7 Ab. […] T47D, HeLa, MDA-MB-231 and A2352 cells were serum starved (0.1%, 16 hours), pretreated with EPE peptide, scrambled peptide (10 μM, 2 hours) or DMSO control, and then stimulated with TPA (250 nM, indicated times). Cell extracts were subjected to Western blot analysis with the indicated Abs. (C) EPE peptide inhibits phosphorylation of c-Myc and Elk1 in B-Raf melanomas. A2158 and A2352 cells were treated with scrambled and EPE peptide for two hours and then stimulated with the indicated concentration of TPA for 30 min. […] (D) Quantification of some of the results in B and C. […]
(i) Preparation of cellular extracts for Western Blotting: Cells were rinsed twice with ice-cold PBS and scraped into Radio-immunoprecipitation assay buffer (RIPA; 137 mM NaCl, 20 mM Tris (pH 7.4), 10% glycerol, 1% Triton X-100, 0.5% deoxycholate, 0.1% SDS, 2 mM EDTA, 1 mM PMSF, and 20 μM leupeptin). The extracts were centrifuged (20,000×g, 15 min, 4° C.), and the supernatants were further analyzed by Western blotting. […]

## GQLNHILGILGEPEQED (Synthetic peptide (EPE)) [EPE peptide, NTS-derived peptide with phosphomimetic EPE motif]
[1]
  ERK localization in xenograft tumor sections: localized almost exclusively in the cytoplasm
[2]
  cell morphology: no effect
[3]
  cell morphology: inducing cell-break already 24 hours after treatment
[4]; T47D, HeLa, MDA-MB-231 and A2352 cells
  NTS phosphorylation (by CK2) of ERK1/2: only slightly affected; also recorded: prevents ERK1/2's NTS
[4]; four distinct cell lines
  activatory ERK-TEY phosphorylation: no effect
